Data taken from article PMC10747462, “A Hydrolase Produced by Rhodococcus erythropolis HQ Is Responsible for the Detoxification of Zearalenone” (Toxins, 2023).

Tested on: T1, ZenR
T1 construct: gene PXH69_30770
Settings: read-out: Km,app; optimal conditions (55 °C, pH 8.0-9.0); 10-300 μM ZEN; no metal needed

T1 sequence (A0AAW6LW22 entry or part of it): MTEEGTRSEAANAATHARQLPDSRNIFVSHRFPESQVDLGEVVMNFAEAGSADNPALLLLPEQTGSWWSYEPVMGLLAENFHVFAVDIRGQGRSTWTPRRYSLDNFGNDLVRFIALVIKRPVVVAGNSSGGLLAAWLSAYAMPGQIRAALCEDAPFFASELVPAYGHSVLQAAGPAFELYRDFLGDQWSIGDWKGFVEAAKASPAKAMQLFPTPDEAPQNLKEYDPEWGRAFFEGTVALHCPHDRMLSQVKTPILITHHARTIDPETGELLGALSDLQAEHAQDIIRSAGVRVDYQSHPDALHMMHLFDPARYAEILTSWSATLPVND

C[C@H]1CCCC(=O)CCC/C=C/c2cc(O)cc(O)c2C(=O)O1 [Zearalenone]
Km: 21.14 ± 0.16 µM
